Data set [1] can be described thus: Flowability by elapsed flow-out time. The format is physicochemical. The protocol: (§1) Stability was determined by the measurement of the top clear layer after 3 days @ 50° C. Flowability was determined by measuring the elapsed time that it took for 4 grams of the 5 gram sample to flow out of a container with a 0.9 cm opening @ 25° C.
The nature of data set [2]: Stability by top clear layer after 3 days @ 50 C. The format is physicochemical. The method, then: as §1
A short description of data set [3]: 1% dispersibility in water, 1 gram of sample in 99 grams of water.
Data set [4] deals with West Texas Soil (Estacado Clay Loam). The experiment in a line: Ammonia generation from treated urea on soil, headspace NH3 by Draeger am-5000 meter. The conditions noted are these: for Measuring Ammonia Generation, Days Ran 3: day 3; for Measuring Ammonia Generation, Days Ran 4: day 4; for Measuring Ammonia Generation, Days Ran 5: day 5; for Measuring Ammonia Generation, Days Ran 6: day 6; for Measuring Ammonia Generation, Days Ran 7: day 7; for Measuring Ammonia Generation, Days Ran 10: day 10; for Measuring Ammonia Generation, Days Ran 11: day 11; for Measuring Ammonia Generation, Days Ran 13: day 13.

Data set [5] shares this test system. Kind of data set: Ammonia generation, N Yield vs N Yield + NH4Cl solutions with urea dropped onto soil sample. The conditions noted are these: in the presence of NBPT.
Data set [6] has the same test system. The experiment in a line: NH4Cl vs DCD as nitrification inhibitor, ammonia generation from treated urea. The following applies: compared to DCD.
Data set [7] is described as follows: Sedimentation of inorganic chloride particles of Example 14 after adding organic liquids. It counts as physicochemical.
Where [8] appears, read: 4% organic liquid added to Example 56, time for 4 grams of 5 gram sample to flow out of 0.9 cm opening @ 25 C.
Setting [9] is: 4% organic liquid added to Example 56, top clear layer after 3 days @ 50 C.
Setting [10] is: 4% organic liquid added to Example 56.
Where [11] appears, read: organic liquid added to Example 56 at a 4% level.
The mark [12] stands for this setting: One Month Storage of treated urea.
[13] abbreviates: Two Month Storage of treated urea.

Read-outs that look alike come from different tables or passages of the source. A value given as a limit tells only on which side of the number the result lay.

As to `CC1(C)OCC(CO)O1` (stereo not drawn) [2,2-dimethyl-l,3-dioxolane-4-methanol, 2,2-dimethyl-1,3-dioxolane-4-methanol], the “seconds (flowability)” value in data set [1] (setting [8]) is 3.85 s. Also, the “Clear layer (cm)” value in data set [2] (setting [9]) is reported as 0.3 cm. Besides, the “1% dispersibility in water rating” value in data set [3] (setting [10]) was determined as 6. Moreover, the “effect on Example 56's dispersibility in water” value in data set [3] (setting [11]) is recorded as “improve Example 56's dispersibility in water significantly”.
The matching figures for `OCC(O)CO` [Glycerin]: 2.35 s, 0.4 cm, 6 and “improve Example 56's dispersibility in water significantly”.
With `CN1CCCC1=O` [N-methyl pyrrolidone], the “seconds (flowability)” value in data set [1] (setting [8]) was 2.49 s. Also, in data set [2] (setting [9]), the “Clear layer (cm)” value stood at 0.45 cm. In addition, the “1% dispersibility in water rating” value in data set [3] (setting [10]) is 3.
Consider `CCCCNP(N)(N)=S` [NBPT, N-(n-butyl)-thiophosphoric triamide], for which, in data set [4] (Initial), the “Measuring Ammonia Generation, Days Ran 3” value is listed as 9 ppm; the “Measuring Ammonia Generation, Days Ran 4” value was found to be 10 ppm; the “Measuring Ammonia Generation, Days Ran 5” value came to 4 ppm; the “Measuring Ammonia Generation, Days Ran 6” value is 4 ppm. In addition, in data set [4] (Initial), the “Measuring Ammonia Generation, Days Ran 7” value is reported as 14 ppm; the “Measuring Ammonia Generation, Days Ran 10” value is recorded as 97 ppm; the “Measuring Ammonia Generation, Days Ran 11” value is on record as 88 ppm. Besides, the “Measuring Ammonia Generation, Total” value in data set [4] (Initial, total of days 3-11) is listed as 226 ppm. Moreover, in data set [4] (setting [12]), the “Measuring Ammonia Generation, Days Ran 3” value was 111 ppm; the “Measuring Ammonia Generation, Days Ran 4” value was 51 ppm; the “Measuring Ammonia Generation, Days Ran 5” value amounted to 57 ppm; the “Measuring Ammonia Generation, Days Ran 6” value was found to be 98 ppm. Besides, in data set [4] (setting [12]), the “Measuring Ammonia Generation, Days Ran 7” value is 236 ppm; the “Measuring Ammonia Generation, Days Ran 10” value amounted to 349 ppm; the “Measuring Ammonia Generation, Days Ran 11” value came to 251 ppm; the “Measuring Ammonia Generation, Days Ran 13” value stood at 153 ppm. In addition, the “Measuring Ammonia Generation, Days Ran 12” value in data set [4] (One Month Storage of treated urea, day 12) is listed as 301 ppm. In addition, in data set [4] (One Month Storage of treated urea, total of days 3-13), the “Measuring Ammonia Generation, Total” value stood at 1607 ppm. Moreover, the “Measuring Ammonia Generation, Days Ran 1” value in data set [4] (Two Month Storage of treated urea, day 1) worked out at 103 ppm. In data set [4] (setting [13]), the “Measuring Ammonia Generation, Days Ran 5” value was 99 ppm; the “Measuring Ammonia Generation, Days Ran 6” value is 32 ppm; the “Measuring Ammonia Generation, Days Ran 7” value is 129 ppm; the “Measuring Ammonia Generation, Days Ran 13” value stood at 152 ppm. Besides, in data set [4] (Two Month Storage of treated urea, day 8), the “Measuring Ammonia Generation, Days Ran 8” value was 159 ppm. In data set [4] (Two Month Storage of treated urea, day 9), the “Measuring Ammonia Generation, Days Ran 9” value turned out to be 130 ppm. The “Measuring Ammonia Generation, Days Ran 14” value in data set [4] (Two Month Storage of treated urea, day 14) stood at 66 ppm. Also, the “Measuring Ammonia Generation, Days Ran 15” value in data set [4] (Two Month Storage of treated urea, day 15) came out at 49 ppm. Also, the “Measuring Ammonia Generation, Days Ran 16” value in data set [4] (Two Month Storage of treated urea, day 16) is recorded as 68 ppm. Moreover, the “Measuring Ammonia Generation, Total” value in data set [4] (Two Month Storage of treated urea, total) worked out at 884 ppm.
`Cl.N` [NH4Cl, ammonium chloride]: the “behaviour in ammonia generation test” value in data set [5] is “performing as a nitrification inhibitor”. For the same compound, the “performance as a nitrification inhibitor” value in data set [6] is reported as “equivalent to DCD”.
With `C[S+](C)[O-]` [dimethyl sulfoxide], in data set [1] (setting [8]), the “seconds (flowability)” value worked out at 20.3 s. The “Clear layer (cm)” value in data set [2] (setting [9]) is on record as 0 cm. Besides, the “Clear layer in inches of a 4 inch sample” value was under 1 inches in data set [7] (8 grams added/25 grams of Example 14, within 24 hours of standing) and 1 inches in data set [7] (25 grams added/25 grams of Example 14, within 24 hours of standing). For the same compound, in data set [3] (setting [10]), the “1% dispersibility in water rating” value is listed as 4.
For `CC[N+](C)(CC)CC.[Cl-]` [triethyl methyl ammonium chloride], the “Clear layer in inches of a 4 inch sample” value in data set [7] (2 grams added/25 grams of Example 14, within 24 hours of standing) is on record as 0 inches.
Turning to `CCOP(=O)(OCC)OCC` [triethyl phosphate], the “seconds (flowability)” value in data set [1] came out at 4.03 s. For the same compound, the “Clear layer (cm)” value in data set [2] was found to be 0.4 cm. Moreover, the “Clear layer in inches of a 4 inch sample” value in data set [7] amounted to 0 inches. In data set [3], the “1% dispersibility in water rating” value is 6 and the “effect on Example 56's dispersibility in water” value is “improve Example 56's dispersibility in water significantly”.
In the case of butyl carbonate, the “Clear layer in inches of a 4 inch sample” value in data set [7] stood at 0 inches.

The values are drawn from patent publication US12098109B2, “Reaction methods for producing nitrogenous phosphoryl compounds that are in situ fluid compositions” (SOILGENIC TECHNOLOGIES, LLC, priority 2021, dated 2024).
